Laboratory results: patent publication US6825187B2, “Carbapenem derivatives of quarternary salt type” (Meiji Seika Kaisha, Ltd., priority 2000, dated 2004)
In brackets after ≈: the same amount, converted by molar mass. Structures can show the parent of a compound that is named as a salt.

How the values were obtained:
[1] = system: S. pneumoniae PRC 9 (Penicillin-hyperresistant strain); experiment: Antimicrobial activities, MIC; assay type: cell-based; settings: Sensitivity Disk agar-N+5% Horse blood, inoculants 10^6 CFU/ml
Method: (§1) The minimum inhibiting concentrations (MIC, μg/ml) of representative compounds, among the novel carbapenem derivatives of the present invention, to various pathogenic bacteria were measured in accordance with the method described in CHEMOTHERAPY, vol. 16, No. 1, 99, 1968. The culture medium for the measurement is Sensitivity Disk agar-N+5% Horse blood, and the amount of inoculants used is 10^6 CFU/ml.

[2] = system: H. influenzae PRC 2; experiment: Antimicrobial activities, MIC; assay type: cell-based; settings: inoculants 10^6 CFU/ml; for minimum inhibiting concentrations (MIC): Sensitivity Disk agar-N+5% Horse blood
Method: as §1

[3] = system: E. coli NIHJ JC-2; experiment: Antimicrobial activities, MIC; assay type: cell-based; settings: inoculants 10^6 CFU/ml; for minimum inhibiting concentrations (MIC): Sensitivity Disk agar-N+5% Horse blood
Method: as §1

[4] = system: H. influenzae PRC 44; experiment: Antimicrobial activities, MIC; assay type: cell-based; settings: inoculants 10^6 CFU/ml; for minimum inhibiting concentrations (MIC): Sensitivity Disk agar-N+5% Horse blood
Method: as §1

[5] = system: K. pneumoniae PC 1602; experiment: Antimicrobial activities, MIC; assay type: cell-based; settings: inoculants 10^6 CFU/ml; for minimum inhibiting concentrations (MIC): Sensitivity Disk agar-N+5% Horse blood
Method: as §1

[6] = system: E. faecalis W-73; experiment: Antimicrobial activities, MIC; assay type: cell-based; settings: inoculants 10^6 CFU/ml; for minimum inhibiting concentrations (MIC): Sensitivity Disk agar-N+5% Horse blood
Method: as §1

[7] = system: S. epidermidis ATCC 14990; experiment: Antimicrobial activities, MIC; assay type: cell-based; settings: inoculants 10^6 CFU/ml; for minimum inhibiting concentrations (MIC): Sensitivity Disk agar-N+5% Horse blood
Method: as §1

[8] = system: C. freundii GN 346; experiment: Antimicrobial activities, MIC; assay type: cell-based; settings: inoculants 10^6 CFU/ml; for minimum inhibiting concentrations (MIC): Sensitivity Disk agar-N+5% Horse blood
Method: as §1

[9] = system: E. hirae ATCC 8043; experiment: Antimicrobial activities, MIC; assay type: cell-based; settings: inoculants 10^6 CFU/ml; for minimum inhibiting concentrations (MIC): Sensitivity Disk agar-N+5% Horse blood
Method: as §1

[10] = system: P. vulgaris GN 7919; experiment: Antimicrobial activities, MIC; assay type: cell-based; settings: inoculants 10^6 CFU/ml; for minimum inhibiting concentrations (MIC): Sensitivity Disk agar-N+5% Horse blood
Method: as §1

[11] = system: B. catarrhalis W-0500; experiment: Antimicrobial activities, MIC; assay type: cell-based; settings: inoculants 10^6 CFU/ml; for minimum inhibiting concentrations (MIC): Sensitivity Disk agar-N+5% Horse blood
Method: as §1

[12] = system: S. aureus M 126 (Methicillin-hyperresistant strain); experiment: Antimicrobial activities, MIC; assay type: cell-based; settings: Sensitivity Disk agar-N+5% Horse blood, inoculants 10^6 CFU/ml
Method: as §1

[13] = system: S. aureus 209P JC-1; experiment: Antimicrobial activities, MIC; assay type: cell-based; settings: Sensitivity Disk agar-N+5% Horse blood, inoculants 10^6 CFU/ml
Method: as §1

[14] = system: mice (ICR, male); experiment: Acute Toxicity Test; assay type: in vivo; settings: intraveneously administered, 2000 mg/kg, one group of three mice
Method: The compound of Example 3 according to the present invention was intraveneously administered at a dose of 2000 mg/kg to mice (ICR, male) (one group consisting of three mice).

[15] = Staphylococcus aureus, read-out: minimum inhibiting concentrations (MIC)

| minimum inhibiting concentrations (MIC) [1] [µg/mL] | minimum inhibiting concentrations (MIC) [2] [µg/mL] | minimum inhibiting concentrations (MIC) [3] [µg/mL] | minimum inhibiting concentrations (MIC) [4] [µg/mL] | minimum inhibiting concentrations (MIC) [5] [µg/mL] | minimum inhibiting concentrations (MIC) [6] [µg/mL] | minimum inhibiting concentrations (MIC) [7] [µg/mL] | minimum inhibiting concentrations (MIC) [8] [µg/mL] | minimum inhibiting concentrations (MIC) [9] [µg/mL] | minimum inhibiting concentrations (MIC) [10] [µg/mL] | minimum inhibiting concentrations (MIC) [11] [µg/mL] | minimum inhibiting concentrations (MIC) [12] [µg/mL] | minimum inhibiting concentrations (MIC) [13] [µg/mL] | Compound | other results |
| --- | --- | --- | --- | --- | --- | --- | --- | --- | --- | --- | --- | --- | --- | --- |
| 0.025 | 0.05 | 0.025 | 0.20 | 0.10 | 0.20 | <0.025 | 0.10 | 0.78 | 0.20 | 0.025 | 1.56 | <0.025 | CSc1c2sc(C3=C(C(=O)[O-])N4C(=O)[C@H]([C@@H](C)O)[C@H]4[C@H]3C)cn2c[n+]1C [Example 2, (1S,5R,6S)-6-((1R)-1-hydroxyethyl)-1-methyl-2-(6-methyl-7-methylthioimidazo[5,1-b]thiazolium-2-yl)-1-carbapen-2-em-3-carboxylate (intramolecular salt)] | – |
| 0.025 | 0.05 | 0.05 | 0.78 | 0.10 | 0.20 | <0.025 | 0.10 | 0.39 | 0.39 | 0.025 | 0.39 | <0.025 | CSc1c2sc(C3=C(C(=O)[O-])N4C(=O)[C@H]([C@@H](C)O)[C@H]4[C@H]3C)cn2c[n+]1CCCN.Cl [Example 14, (1S,5R,6S)-2-[6-(3-aminopropyl)-7-methylthioimidazo[5,1-b]thiazolium-2-yl]-6-((1R)-1-hydroxyethyl)-1-methyl-1-carbapen-2-em-3-carboxylate (intramolecular salt) hydrochloride] | – |
| 0.05 | 0.10 | 0.05 | 0.78 | 0.10 | 0.20 | <0.025 | 0.20 | 0.39 | 0.39 | 0.05 | 0.78 | <0.025 | CSc1c2sc(C3=C(C(=O)[O-])N4C(=O)[C@H]([C@@H](C)O)[C@H]4[C@H]3C)cn2c[n+]1C[C@H](O)CN.Cl [Example 99, (1S,5R,6S)-2-[6-((2R)-3-amino-2-hydroxy)propyl-7-methylthioimidazo[5,1-b]thiazolium-2-yl]-6-((1R)-1-hydroxyethyl)-1-methyl-1-carbapen-2-em-3-carboxylate (intramolecular salt) hydrochloride] | – |

The next lines start with the compound.

| Compound | minimum inhibiting concentrations (MIC) [1] [µg/mL] | minimum inhibiting concentrations (MIC) [2] [µg/mL] | minimum inhibiting concentrations (MIC) [3] [µg/mL] | minimum inhibiting concentrations (MIC) [4] [µg/mL] | minimum inhibiting concentrations (MIC) [5] [µg/mL] | minimum inhibiting concentrations (MIC) [6] [µg/mL] | minimum inhibiting concentrations (MIC) [7] [µg/mL] | minimum inhibiting concentrations (MIC) [8] [µg/mL] | minimum inhibiting concentrations (MIC) [9] [µg/mL] | minimum inhibiting concentrations (MIC) [10] [µg/mL] | minimum inhibiting concentrations (MIC) [11] [µg/mL] | minimum inhibiting concentrations (MIC) [12] [µg/mL] | minimum inhibiting concentrations (MIC) [13] [µg/mL] | other results |
| --- | --- | --- | --- | --- | --- | --- | --- | --- | --- | --- | --- | --- | --- | --- |
| C[C@@H](O)[C@H]1C(=O)N2C(C(=O)O)=C(SCCN=CN)C[C@H]12 [Compound A, Imipenem, reference compound] | – | – | – | – | – | – | – | – | – | – | – | – | – | MIC ([1]; Streptococcus pneumoniae, read-out: minimum inhibiting concentrations (MIC)): 0.2 µg/mL (≈ 0.668 µM); MIC ([2]; Haemophilus influenzae, PRC2, Sensitivity Disk agar-N+5% Horse blood, read-out: minimum inhibiting concentrations (MIC)): 0.79 µg/mL (≈ 2.64 µM); MIC ([3]; Escherichia coli, NIHJJC2, Sensitivity Disk agar-N+5% Horse blood, read-out: minimum inhibiting concentrations (MIC)): 0.1 µg/mL (≈ 0.334 µM); MIC ([4]; Haemophilus influenzae, PRC44, Sensitivity Disk agar-N+5% Horse blood, read-out: minimum inhibiting concentrations (MIC)): 12.5 µg/mL (≈ 41.8 µM); MIC ([5]; Klebsiella pneumoniae, PC1602, Sensitivity Disk agar-N+5% Horse blood, read-out: minimum inhibiting concentrations (MIC)): 0.2 µg/mL (≈ 0.668 µM); MIC ([6]; Enterococcus faecalis, W73, Sensitivity Disk agar-N+5% Horse blood, read-out: minimum inhibiting concentrations (MIC)): 0.78 µg/mL (≈ 2.61 µM); MIC ([7]; Staphylococcus epidermidis, ATCC14990, Sensitivity Disk agar-N+5% Horse blood, read-out: minimum inhibiting concentrations (MIC)): < 0.025 µg/mL; MIC ([8]; Citrobacter freundii, GN346, Sensitivity Disk agar-N+5% Horse blood, read-out: minimum inhibiting concentrations (MIC)): 0.2 µg/mL (≈ 0.668 µM); MIC ([9]; Enterococcus hirae, ATCC8043, Sensitivity Disk agar-N+5% Horse blood, read-out: minimum inhibiting concentrations (MIC)): 0.78 µg/mL (≈ 2.61 µM); MIC ([10]; Proteus vulgaris, GN7919, Sensitivity Disk agar-N+5% Horse blood, read-out: minimum inhibiting concentrations (MIC)): 0.1 µg/mL (≈ 0.334 µM); MIC ([11]; Moraxella catarrhalis, W0500, Sensitivity Disk agar-N+5% Horse blood, read-out: minimum inhibiting concentrations (MIC)): 0.05 µg/mL (≈ 0.167 µM); MIC [12, 15]: 25 µg/mL (≈ 83.5 µM); MIC [13, 15]: < 0.025 µg/mL |
| C[C@@H](O)[C@H]1C(=O)N2C(C(=O)[O-])=C(c3cn4c[n+](C)cc4s3)[C@H](C)[C@H]12 [Compound B, (1S,5R,6S)-6-((1R)-1-Hydroxyethyl)-1-methyl-2-(6-methylimidazo[5,1-b]thiazolium-2-yl)-1-carbapen-2-em-3-carboxylate (intramolecular salt), reference compound] | 0.05 | 0.10 | <0.025 | 0.39 | 0.10 | 0.20 | <0.025 | 0.10 | 0.78 | 0.20 | <0.025 | 3.13 | <0.025 | – |
| CSc1c2sc(C3=C(C(=O)[O-])N4C(=O)[C@H]([C@@H](C)O)[C@H]4[C@H]3C)cn2c[n+]1CC(N)=O [Example 3, (1S,5R,6S)-2-(6-carbamoylmethyl-7-methylthioimidazo[5,1-b]thiazolium-2-yl)-6-((1R)-1-hydroxyethyl)-1-methyl-1-carbapen-2-em-3-carboxylate (intramolecular salt)] | 0.025 | 0.05 | 0.025 | 0.20 | 0.10 | 0.20 | <0.025 | 0.20 | 0.39 | 0.20 | 0.025 | 1.56 | <0.025 | survival in acute toxicity test [14]: all the mice survived |
